The results in this text go back to patent US8623893B2, “Pyridino-pyridinone derivatives, preparation and therapeutic use thereof” (SANOFI, priority 2009, dated 2014).

Molecules are shown by their SMILES. pIC50: −log10 of the molar value.

In assay [1] the target is T1, Flt-3 receptor (constitutively active mutant Flt3ITD, MV4-11 cell line) (Homo sapiens, UniProt P36888, INS600HVDFREYEYD).
T1 construct: bearing a constitutively active mutant Flt3ITD; endogenous in cells; host or cells: MV4-11
T1 sequence (P36888 with tags, fused parts or gaps INS600HVDFREYEYD): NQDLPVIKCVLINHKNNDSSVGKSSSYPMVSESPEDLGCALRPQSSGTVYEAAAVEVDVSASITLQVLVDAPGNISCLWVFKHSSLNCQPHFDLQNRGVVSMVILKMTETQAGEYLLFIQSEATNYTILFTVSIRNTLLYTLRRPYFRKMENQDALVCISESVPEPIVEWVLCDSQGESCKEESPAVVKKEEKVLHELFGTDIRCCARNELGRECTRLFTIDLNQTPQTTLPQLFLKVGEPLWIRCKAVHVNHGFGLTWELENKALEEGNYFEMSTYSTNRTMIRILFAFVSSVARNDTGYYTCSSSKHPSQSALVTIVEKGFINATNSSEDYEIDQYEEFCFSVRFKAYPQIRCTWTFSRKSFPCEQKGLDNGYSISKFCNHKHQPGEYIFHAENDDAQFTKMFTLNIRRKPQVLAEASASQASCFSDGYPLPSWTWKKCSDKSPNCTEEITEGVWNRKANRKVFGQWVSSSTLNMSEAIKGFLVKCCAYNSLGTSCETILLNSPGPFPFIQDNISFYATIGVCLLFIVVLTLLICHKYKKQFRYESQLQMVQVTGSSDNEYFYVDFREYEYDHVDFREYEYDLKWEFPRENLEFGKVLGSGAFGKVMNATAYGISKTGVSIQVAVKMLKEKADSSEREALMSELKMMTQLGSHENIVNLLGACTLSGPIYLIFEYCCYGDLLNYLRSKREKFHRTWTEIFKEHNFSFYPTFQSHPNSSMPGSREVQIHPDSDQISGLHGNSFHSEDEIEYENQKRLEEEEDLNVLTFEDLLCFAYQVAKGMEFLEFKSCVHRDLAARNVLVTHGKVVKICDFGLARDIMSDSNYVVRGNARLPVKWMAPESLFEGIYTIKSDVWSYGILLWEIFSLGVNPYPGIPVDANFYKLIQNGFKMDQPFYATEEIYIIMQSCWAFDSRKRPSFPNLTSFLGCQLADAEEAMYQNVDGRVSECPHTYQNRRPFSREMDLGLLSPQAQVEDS
Put plainly: Inhibition of proliferation of MV4-11 cells (tyrosine kinase activity of Flt-3 receptor), CellTiter-Glo, 72 h. It is filed as cell-based. The following applies: 72 h incubation, cellular ATP, read-out: IC50 (concentration that inhibits 50% of the proliferation of the MV4-11 cells). How it is done:
(§1) The inhibitory activity with respect to PDGF or Flt-3 receptors is given by the concentration that inhibits 50% of the proliferation activity of cells Baf3 tel/PDGF or MV4-11, respectively.
Measurement of Inhibition of the Tyrosine Kinase Activity of the Flt-3 Receptor
The inhibitory effect of the compounds according to the invention on the tyrosine kinase activity of the Flt-3 receptor was evaluated on the MV4-11 cell line, a line established from a leukaemia of the AML type and bearing a constitutively active mutant Flt3ITD. The inhibitory activity is correlated with inhibition of cell growth, according to the protocols described by SPIEKERMANN, K. et al., Blood, 2003, 101, (4) 1494-1504 and O'FARRELL, A.-M. et al., Blood, 2003, 101, (9) 3597-3605.
(§2) The MV4-11 cells are washed with PBS buffer and seeded in 96-well plates, at a density of 1.10^5 cells/ml (100 μl per well), in RPMI 1640 containing 10% of FCS, in the presence or absence of the test compounds. After incubation for 72 h, viable cells are quantified by measurement of cellular ATP using the CellTiter-Glo® kit (Promega, Cat G7571). The cells are treated according to the instructions given by the supplier of the kit and the luminescence is measured using a Luminoskan (Ascent, Labsystem) with the following parameters: measurement: single; integration time: 1000 ms, lag time: 5 s.
The inhibitory activity with respect to the Flt-3 receptor is given by the concentration that inhibits 50% of the proliferation of the MV4-11 cells.
A general note: ATP-based viability assays read luminescence as a measure of living cells.

Assay [2] concerns the target T2, fusion protein Tel/PDGF-R beta (PDGF beta receptor) in BaF/3 cells (Homo sapiens, UniProt P09619).
T2 construct: the transmembrane and intracellular part of the PDGF-R beta receptor; expressed in transfected cells; host or cells: murine haematopoietic cell line BaF/3; the other entry of the earlier key: ETV6 (P41212, Transcription factor ETV6)
The assay is described as follows: Inhibition of proliferation of BaF3 Tel/PDGF cells (tyrosine kinase activity of PDGF-R beta), CellTiter-Glo, 72 h. It counts as cell-based, murine. The following applies: 72 h incubation, cellular ATP, read-out: IC50 (concentration that inhibits 50% of the proliferation of Baf3 tel/PDGF cells).
Text: as §1
Measurement of Inhibition of the Tyrosine Kinase Activity of the Receptor to PDGF Beta (PDGF-Rβ) (Baf-3 tel/PDGFRβ):
This test consists of evaluating the effects of the compounds on the tyrosine kinase activity of the PDGF beta receptor.
The inhibitory effect of the compounds according to the invention on the tyrosine kinase activity of the PDGF-R receptor was evaluated on the murine haematopoietic cell line BaF/3 transfected with a plasmid coding for the fusion protein Tel/PDGF-R beta. This fusion protein is found in chronic myeloid myelomonocytic leukaemias (CMML). It comprises the N-terminal part of the transcription factor Tel and the transmembrane and intracellular part of the PDGF-R beta receptor. This fusion protein is present in dimerized form (presence of an oligomerization domain in the N-terminal part of Tel) and accordingly leads to the constitutive activity of the kinase domain of PDGF-R beta.
as §2, with “The BaF3 Tel/PDGF” for “The MV4-11”, “with phosphate” for “with PBS”, “of 5.10^4” for “of 1.10^5”, “([…]” for “(100 μl”, “h, the” for “h,”, “measured with” for “measured using”
It thus appears that the compounds according to the invention have an inhibitory activity on the tyrosine kinase activity of PDGF-R beta. This activity is given by the concentration that inhibits 50% of the proliferation of Baf3 tel/PDGF cells (IC50).

T2 sequence (P09619 with tags, fused parts or gaps): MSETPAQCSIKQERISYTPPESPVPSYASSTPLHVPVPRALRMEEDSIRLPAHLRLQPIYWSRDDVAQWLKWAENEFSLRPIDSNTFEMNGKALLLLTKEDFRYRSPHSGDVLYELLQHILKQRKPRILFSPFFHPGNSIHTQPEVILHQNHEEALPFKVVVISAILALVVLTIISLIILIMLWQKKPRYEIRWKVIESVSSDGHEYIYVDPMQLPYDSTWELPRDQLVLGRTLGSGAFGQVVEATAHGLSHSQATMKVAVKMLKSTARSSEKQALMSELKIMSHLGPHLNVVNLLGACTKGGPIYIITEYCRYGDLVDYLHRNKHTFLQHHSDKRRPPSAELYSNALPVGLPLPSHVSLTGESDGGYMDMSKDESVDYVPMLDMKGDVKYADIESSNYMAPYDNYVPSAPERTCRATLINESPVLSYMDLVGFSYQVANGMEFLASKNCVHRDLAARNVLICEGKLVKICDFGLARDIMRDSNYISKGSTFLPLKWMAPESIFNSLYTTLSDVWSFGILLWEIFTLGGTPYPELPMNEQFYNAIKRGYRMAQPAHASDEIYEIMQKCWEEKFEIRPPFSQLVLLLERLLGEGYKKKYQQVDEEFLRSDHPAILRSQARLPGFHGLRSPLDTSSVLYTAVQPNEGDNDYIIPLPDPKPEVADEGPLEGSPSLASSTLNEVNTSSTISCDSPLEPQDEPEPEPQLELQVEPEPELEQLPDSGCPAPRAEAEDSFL

For the compound `CCn1c(N)c(-c2ncc[nH]2)c(=O)c2ccc(-c3ccc(CC(=O)Nc4ncc(C)s4)cc3)nc21` [Compound 8, 2-{4-[7-Amino-8-ethyl-6-(1H-imidazol-2-yl)-5-oxo-5,8-dihydro-[1,8]naphthyridin-2-yl]-phenyl}-N-(5-methyl-thiazol-2-yl)-acetamide], the pIC50 in assay [1] is 7.28; in assay [2], 8.70.

In the case of `CCn1c(N)c(-c2ncc[nH]2)c(=O)c2ccc(-c3ccc(CC(=O)Nc4nnc(C5CC5)s4)cc3)nc21` [Compound 20, 2-{4-[7-Amino-8-ethyl-6-(1H-imidazol-2-yl)-5-oxo-5,8-dihydro-[1,8]naphthyridin-2-yl]-phenyl}-N-(5-cyclopropyl-[1,3,4]thiadiazol-2-yl)-acetamide], the results for the pIC50 in assay [1] and in assay [2] were 7.59 and 8.10, respectively.

For the compound `CCn1c(N)c(-c2ncc[nH]2)c(=O)c2ccc(-c3ccc(CC(=O)Nc4onc(C)c4C)cc3)nc21` [Compound 27, 2-{4-[7-Amino-8-ethyl-6-(1H-imidazol-2-yl)-5-oxo-5,8-dihydro-[1,8]naphthyridin-2-yl]-phenyl}-N-(3,4-dimethyl-isoxazol-5-yl)-acetamide], the pIC50 is 7.52 in assay [1] and 8.70 in assay [2].

Turning to `CCn1c(N)c(-c2ncc[nH]2)c(=O)c2ccc(-c3ccc(CC(=O)Nc4ncccc4C)cc3)nc21` [Compound 32, 2-{4-[7-Amino-8-ethyl-6-(1H-imidazol-2-yl)-5-oxo-5,8-dihydro-[1,8]naphthyridin-2-yl]-phenyl}-N-(3-methyl-pyridin-2-yl)-acetamide], the pIC50 in assay [1] was 7.16.

Consider `CCn1c(N)c(-c2ncc[nH]2)c(=O)c2ccc(-c3ccc(CC(=O)Nc4cnccc4C)cc3)nc21` [Compound 42, 2-{4-[7-Amino-8-ethyl-6-(1H-imidazol-2-yl)-5-oxo-5,8-dihydro-[1,8]naphthyridin-2-yl]-phenyl}-N-(4-methyl-pyridin-3-yl)-acetamide], for which the pIC50 in assay [1] was 7.08.

Take `CCc1ccnc(NC(=O)Cc2ccc(-c3ccc4c(=O)c(-c5ncc[nH]5)c(N)n(CC)c4n3)cc2)c1` [Compound 43, 2-{4-[7-Amino-8-ethyl-6-(1H-imidazol-2-yl)-5-oxo-5,8-dihydro-[1,8]naphthyridin-2-yl]-phenyl}-N-(4-ethyl-pyridin-2-yl)-acetamide]: the figures for the pIC50 in assay [1] and in assay [2] were 7.72 and 8.85, respectively.

In the case of `CCn1c(N)c(-c2nc(C)c[nH]2)c(=O)c2ccc(-c3ccc(CC(=O)NCc4ccncc4)cc3)nc21` [Compound 50, 2-{4-[7-Amino-8-ethyl-6-(4-methyl-1H-imidazol-2-yl)-5-oxo-5,8-dihydro-[1,8]naphthyridin-2-yl]-phenyl}-N-pyridin-4-ylmethyl-acetamide], the pIC50 in assay [1] was 6.94; in assay [2] it was 8.18.
